Measurements as given in patent US20180119123A1, “CRISPR/CAS-RELATED METHODS AND COMPOSITIONS FOR TREATING HIV INFECTION AND AIDS” (EDITAS MEDICINE, INC., priority 2015, published 2018).

How the values were obtained:
Format in all cases: cell-based
CCR5 locus [1] = assay: T7E1 analysis of gene disruption at CCR5 after Cas9 RNP electroporation of primary human T lymphocytes; settings: human CD4+ T lymphocytes, WT Cas9 RNP, 5 μg each RNP per 200,000 cells, 72 hours after electroporation
From the text: While transplantation of autologous CD34^+ HSCs genetically modified to prevent expression of the wild-type CXCR4 or the CCR5 would provide a long-term cure to HIV infection, the myeloablative conditioning associated with HSC transplantation destroys host adaptive immunity […] until the T cell pool is reconstituted after HSC engraftment is acheived, which can take several months. This delay in adaptive immune reconstitution puts patients at risk for the development of opportunistic infections during the acute phase of early engraftment following HSC transplantation. […] In this Example, single and multiplex genome editing in human T lymphocytes after electroporation of Cas9 RNP targeting the CXCR4 locus, the CCR5 locus, or both simultaneously (multiplexing) was evaluated after electroporation of CXCR4 and CCR5 gRNAs that were in vitro transcribed and modified to have an ARCA cap at the 5′ end and a polyA (20A) tail at the 3′ end. […] Table 16 depicts experimental design associated with Example 9 to evaluate gene editing as determined by T7E1 endonuclease assay analysis of the CXCR4 and CCR5 loci after electroporation of primary human T lymphocytes with S. aureus and/or S. pyogenes RNPs. […]

CCR5 locus [2] = assay: T7E1 endonuclease assay at CCR5 after Cas9 RNP electroporation of human cord blood CD34+ HSCs; settings: human CB CD34+ HSCs, WT Cas9 RNP, 5 μg each per 200,000 cells, 72 hours after electroporation
From the text: Transplantation of autologous CD34^+ hematopoietic stem cells (HSCs, also known as hematopoietic stem/progenitor cells or HSPCs) that have been edited to disrupt expression of CXCR4 or CCR5 gene products would prevent entry of the HIV virus HSC progeny that are normally susceptible to HIV infection (e.g., macrophages and CD4 T lymphocytes). Multiplex genome editing with the Cas9 RNP complexed to modified gRNAs precisely alters more than one endogenous gene targets by creating indels at two different cut sites can lead to knock down of gene expression at multiple edited loci. In this Example, single target and multiplex genome editing was evaluated in human umbilical cord blood (CB) CD34^+ cells after electroporation of wild-type S. pyogenes Cas9, wild-type S. aureus Cas9 or D10A nickase. Briefly, Cas9 protein was complexed with modified sgRNAs targeting CXCR4 or CCR5. […] Seventy-two hours after electroporation of RNP with the Amaxa nucleofector system, CD34^+ HSCs were collected, gDNA isolated and CXCR4 and CCR5 PCR products analyzed by T7E1 endonuclease assay to evaluate targeted disruption of these HIV co-receptors (Table 19). Table 19 depicts experimental design associated with Example 10 to evaluate gene editing determined by T7E1 endonuclease assay analysis of the at CXCR4 and CCR5 loci after electroporation of primary human CD34^+ HSCs with S. aureus and/or S. pyogenes RNPs.

human CCR5 gene = assay: T7E1 endonuclease assay of CCR5 PCR product after electroporation of S. aureus Cas9 plasmid and gRNA STITCHR product into K562 cells; settings: 750 ng S. aureus Cas9 plasmid DNA and 250 ng STITCHR product, 48 and 72 hours after electroporation
From the text: To identify gRNAs that efficiently target disruption of the human CCR5 gene, eleven gRNAs were selected from a larger list of gRNAs obtained from in silico prediction of gRNAs with S. aureus specific PAM sequences. In silico predicted gRNAs were tiered according to the strategy described in Section 8. An abbreviated list of eleven gRNAs with the lowest predictive off-target scores were selected for subsequent screening experiments, based on proximity to the naturally occurring de1ta32 mutation in CCR5 that has been associated with resistance to HIV. The target-specific complementary region of the selected list of eleven gRNAs are depicted in Table 15.
A DNA plasmid encoding an S. aureus expression cassette (AF002) and a gRNA-specific STITCHR product, which is a DNA molecule consisting of a U6 promoter driving expression of the chimeric gRNA (i.e., a target-specific complementary sequence and the S. aureus gRNA scaffold), were electroporated into K562 cells using the Amaxa Nucleofector system and the program and protocol for K562 cells per the manufacturer's instructions. In brief, 750 ng S. aureus Cas9 plasmid DNA and 250 ng of STITCHR product were used for each gRNA. […]

## CCR5_Sa3: S. aureus gRNA targeting CCR5; GUGGUGACAAGUGUGAUCAC (SEQ ID NO: 488) (RNA, backbone not given here; in vitro transcribed gRNA with scaffold, 5' ARCA cap, 3' polyA (20A) tail)
CCR5 locus [1]
  % editing at CCR5: 1.98%
CCR5 locus [2]
  % editing at CCR5: 0.44%
Human CCR5 gene
  indels in CCR5: about 39%
